In ChEMBL document CHEMBL3507680, “University of Dundee, Gates Library screen for HepG2 cell viability” one finds cytotoxicity data, which are given here for 92 molecules.

The data set can be described thus: Human HepG2 cell viability assay in 384 well format. The data set is classed as toxicity, cell-based. Set-up: dose 125 nL, time 70.5 hour; cytotoxicity at 70.5 h: concentration not given beside the values. The note with it: HepG2 cells, read-out: Inhibition.

In the case of `Cc1cc(CN2CC[C@H]3C[C@@H](c4nc(C5CC5)cs4)O[C@@H]3C2)no1`, the cytotoxicity at 70.5 h was -2.95%. As to `CC1N(c2cnn(C)c2)C(=O)COC12CCN(Cc1ccoc1)CC2` (configuration not stated), the cytotoxicity at 70.5 h was 2.62%. Take `O=S(=O)(C1CC1)N1CCCn2nnc(Cn3cccc3)c2C1`: the cytotoxicity at 70.5 h was -8.69%. With `CCS(=O)(=O)N1CCCn2nnc(Cn3cccc3)c2C1`, the cytotoxicity at 70.5 h is -5.99%. `CCN1CC2(CC1=O)CN(C(C)=O)CCN(C(=O)NC(C)C)C2` (configuration not stated): the cytotoxicity at 70.5 h was -8.93%. In the case of `CCn1nc(C)cc1C(=O)N1C[C@@H]2C[C@@H](c3nnc(C)[nH]3)O[C@@H]2C1` it was -12.7%; in that of `Cc1nc(CN2CCN(C)C(=O)C23CCN(CC2CCCC2)CC3)cs1`, -9.21%. With `Cc1ccc(N2C[C@@H]3OCCN(Cc4c(C)noc4C)[C@@H]3C2)nn1`, the cytotoxicity at 70.5 h was -1.63%. With `CC(=O)N1CCn2c(C(=O)N(C)C)cnc2C1` the figure was -29.5%; with `COCCNC(=O)[C@H]1CN(c2nnc(C)s2)C[C@H]2OCC[C@@H]12`, -17.6%.

For the molecule `Cn1cnc2c1C(COCC1CCOCC1)CN(C(=O)c1ccoc1)C2` (configuration not stated), the cytotoxicity at 70.5 h was determined as 11.3%. As for `Cc1cccc(CN2C(=O)CC[C@@H]3[C@H]2CCN3CC2CCOCC2)n1`, the cytotoxicity at 70.5 h was -18.9%.

Regarding `Cn1c2c(ccc1=O)CC(NS(C)(=O)=O)CC2` (configuration not stated), the cytotoxicity at 70.5 h was 27.8%. With `CS(=O)(=O)NC1CCc2c(ccc(=O)n2CC2CC2)C1` (configuration not stated) the figure was -15.1%; with `CC(C)CC(=O)N1CCc2nc(N3CCOCC3)nc(NC(C)C)c2C1`, -15.8%. In the case of `O=C(Cc1ccccn1)N1CCN(CC2CC2)c2ncccc2C1` it was -4.27%; in that of `O=C(c1ccoc1)N1CC[C@@H]2[C@H]1CCC(=O)N2c1ccccc1`, -7.05%. On to `Cc1ccc(C(=O)N2CC[C@@H]3[C@H]2CCC(=O)N3c2ccccc2)o1`, for which the cytotoxicity at 70.5 h was -13.7%. Consider `Cn1nnc2c1CCN(Cc1ccccc1)C2COCC1CC1` (configuration not stated), for which the cytotoxicity at 70.5 h was -3.64%. On to `COCCO[C@H]1CCN(C(=O)C2CCOCC2)[C@H]1Cc1ccncc1`, for which the cytotoxicity at 70.5 h is 29.3%. Turning to `Cn1cccc1C(=O)N1CCC2(CC1)CN(c1cncnc1)C(=O)CO2`, the cytotoxicity at 70.5 h is 8.12%. In the case of `O=C(c1ccco1)N1CC[C@H]2[C@H]1CCN2CC1CCOCC1` it was 5.37%.

In the case of `O=C(c1ccc[nH]1)N1CCn2cc(Cn3cncn3)nc2C1`, the cytotoxicity at 70.5 h was -9.02%. `C[C@@H]1CN(C(=O)NC2CC2)C[C@]12CCN(c1ccsc1)C2=O`: the cytotoxicity at 70.5 h was -3.3%. In the case of `COCCO[C@H]1CCN(C(=O)c2ccc[nH]2)[C@H]1Cc1ccncc1` it was -3.06%; in that of `COCC(=O)N1CC[C@H]2C[C@H](C)O[C@@H]2C1`, -7.04%. `Cn1cccc1C(=O)N1CCc2ncnc(N3CCCC3)c2CC1`: the cytotoxicity at 70.5 h is -5.07%. With `CN(C)C(=O)N1C[C@H]2CN(Cc3cccc(F)c3)C(=O)[C@H]2C1` the figure was -9.2%. For `COc1cc(N2CC[C@H](O)[C@@H]2Cc2cnn(C)c2)ncn1`, the cytotoxicity at 70.5 h was -13.3%. With `CCOCC1CN(C(=O)c2cscn2)Cc2nnn(CC3CC3)c21` (configuration not stated) the figure was -6.01%. For the molecule `O=C(C1CCOC1)N1C[C@H]2CN(Cc3ccccn3)C[C@H]2C1` (some centres not stated), the cytotoxicity at 70.5 h was -18%. Take `O=C(c1ncccn1)N1C[C@H]2CCC[C@@]2(COCC2CCOCC2)C1`: the cytotoxicity at 70.5 h is -15.9%. With `COc1ccc(CN2CCC3(CC2)CCN(c2ncccn2)CC3)cc1` the figure was -6.69%; with `CN1CCN(Cc2ccoc2)Cc2cccnc21`, -4.02%.

Regarding `COCC(=O)N1CC[C@@H](N2CCOCC2)[C@@H]1Cc1ccccc1`, the cytotoxicity at 70.5 h was 4.62%.

In the case of `CCCN(CC)C(=O)c1cc2c(c3ccccc3n2C)n1C(=O)N(C)C`, the cytotoxicity at 70.5 h came to 4.9%.

As for `CC(=O)N1CCC2(CCN(C(=O)c3ccc(Cl)c(C(F)(F)F)c3)CC2)C1`, the cytotoxicity at 70.5 h came to 1.62%. With `CN1CC2(CCN(C(=O)c3cccnc3)CC2)c2cccc(F)c21` the figure was -0.505%. `Cc1nc(COC[C@@H]2CCC[C@@]23CNCCO3)cs1`: the cytotoxicity at 70.5 h turned out to be 15.5%. For the molecule `O=C(c1ccco1)N1CCCC2(CCN(c3nncs3)C2)C1` (configuration not stated), the cytotoxicity at 70.5 h was -5.1%.

On to `COCCN1CCCCC12CC(=O)N(c1ccccc1OC)C2` (configuration not stated), for which the cytotoxicity at 70.5 h is -2.67%.

Take `CC1N(c2cnn(C)c2)C(=O)COC12CCN(Cc1ccco1)CC2` (configuration not stated): the cytotoxicity at 70.5 h is -3.36%. With `CC1N(c2cnn(C)c2)C(=O)COC12CCN(c1ncccn1)CC2` (configuration not stated), the cytotoxicity at 70.5 h was -1.11%. Consider `COc1cccc(CC(=O)N2CC[C@@H](OC)[C@@H]2Cc2cccnc2)c1`, for which the cytotoxicity at 70.5 h was -4.93%. For the molecule `COc1ccc(CC(=O)N2CC[C@@H](OC)[C@@H]2Cc2cccnc2)cc1`, the cytotoxicity at 70.5 h was -4.94%. On to `O=C1CCCN1Cc1nnn2c1CN(c1cccnc1)CCC2`, for which the cytotoxicity at 70.5 h was -8.56%. Regarding `c1cncc(N2CCCn3nnc(COCC4CC4)c3C2)c1`, the cytotoxicity at 70.5 h was -7.98%. Regarding `CCn1nc(C)cc1C(=O)N1C[C@@H]2C[C@@H](C)O[C@@H]2C1`, the cytotoxicity at 70.5 h is -7.68%. In the case of `Cn1ccnc1CN1CCC2(CC1)COC2` it was -7.76%; in that of `Fc1cccc(CN2CCC3(CCCN3c3ncccn3)CC2)c1`, 5.31%; in that of `CS(=O)(=O)N1CCOCC2(CCN(Cc3ccoc3)CC2)C1`, -3.92%.

On to `COc1ncccc1CN1CCC2(CC1)CC(OCC1CC1)CO2` (configuration not stated), for which the cytotoxicity at 70.5 h is -4.27%. As to `Cc1noc(C)c1CN1CC[C@H]2[C@@H]1CCC(=O)N2CC1CCOCC1`, the cytotoxicity at 70.5 h is -3.53%. On to `CCN1C[C@@H]2[C@@H](OC)CCN(S(=O)(=O)c3ccccc3)[C@@H]2C1`, for which the cytotoxicity at 70.5 h came to 3.99%. As to `CN(C)C(=O)CN1CCCC2(CCN(c3ccsc3)C2=O)C1` (configuration not stated), the cytotoxicity at 70.5 h worked out at 23.7%. With `COc1ccc(CN2CCCC3(CCN(c4ccsc4)C3=O)C2)cc1` (configuration not stated) the figure was 2.29%; with `Cc1ncsc1CN1C[C@@H]2COC[C@]2(C(=O)NCC2CC2)C1`, -3.67%. With `OCCN1CCOC2(CCCN(c3cccc(F)c3)C2)C1` (configuration not stated) the figure was -7.62%; with `O=C(NC1CCC1)[C@@H]1C[C@@H]2CCN(Cc3cccs3)C[C@@H]2O1`, 7.52%; with `Cc1nc(COC[C@@H]2CC[C@H]3[C@H](CCN3c3ncccn3)O2)cs1`, -7.79%.

For `O=S1(=O)c2ccccc2C2(CCN(Cc3ccccc3)C2)N1CC1CC1` (configuration not stated), the cytotoxicity at 70.5 h is -5.62%. Turning to `CC(=O)N1CCC2(CC1)COCCN2Cc1ccc(F)cc1`, the cytotoxicity at 70.5 h was -0.157%. On to `O=C1[C@H]2CN(CC3CC3)C[C@H]2CN1c1ccsc1`, for which the cytotoxicity at 70.5 h is -3.2%. Consider `Cn1cc(N2CCC3(CCN(Cc4nccs4)C3)C2=O)cn1` (configuration not stated), for which the cytotoxicity at 70.5 h is -12.1%. As for `COc1ccc(CN2C[C@H]3CN(c4ccsc4)C(=O)[C@H]3C2)cc1`, the cytotoxicity at 70.5 h is -20.7%. As to `O=C1CC2(CCN(Cc3ccccn3)C2)CN1c1cncnc1` (configuration not stated), the cytotoxicity at 70.5 h is -16.1%. Consider `O=C(c1ccno1)N1CC[C@@H]2O[C@@H](COCCN3CCCC3)CC[C@@H]21`, for which the cytotoxicity at 70.5 h was -17.9%.

Turning to `O=C(c1cscn1)N1CCC2(CCN(Cc3cccs3)CC2)C1`, the cytotoxicity at 70.5 h is -6.38%.

With `c1nc2c(c(C3CC3)n1)CCN(CC1CCOC1)CC2` (configuration not stated), the cytotoxicity at 70.5 h was -13.3%. With `CNC(=O)[C@@]12CCO[C@@H]1CCN(S(=O)(=O)c1cccnc1)C2` the figure was -13.7%; with `O=C(NCC1COCc2c(-c3cccnc3)nnn2C1)c1cccs1` (configuration not stated), -15.7%; with `Cc1ccc(N2CC[C@H]3O[C@@H](C(=O)NCc4ccco4)CC[C@H]32)nn1`, -4.81%.

With `Cc1noc(C)c1CN1CC[C@H]2OCC[C@@]2(C(=O)N2CCCO2)C1`, the cytotoxicity at 70.5 h was -7.09%.

For `O=c1cccnn1CC1CN(Cc2ccsc2)Cc2nccn2C1` (configuration not stated), the cytotoxicity at 70.5 h worked out at 0.993%.

`O=C(Nc1ccccc1)N1CCn2nnc(COc3cccnc3)c2C1`: the cytotoxicity at 70.5 h is 1.76%. With `c1cncc(N2CCCn3nnc(CN4CCCCC4)c3C2)c1` the figure was -0.156%; with `Cc1ccc(CN2CC[C@@H]3O[C@@H](C(=O)N4CCN(C)CC4)C[C@@H]32)cc1`, -1.43%. In the case of `Cc1noc(C)c1CN1CC[C@H]2[C@H]1CCN2CC1CCOCC1`, the cytotoxicity at 70.5 h was -5.25%. Regarding `C[C@H]1CN(c2ccccn2)C[C@@]12CCN(Cc1cccnc1)C2=O`, the cytotoxicity at 70.5 h is -0.624%. As to `Cn1cnc2c1C(COCC1CCOCC1)CN(C1CCOCC1)C2` (configuration not stated), the cytotoxicity at 70.5 h was -25.6%.

With `CCn1cc2c(n1)CN(Cc1ccncc1)CC2COCC1CC1` (configuration not stated), the cytotoxicity at 70.5 h is -17.6%.

As to `c1cncc(COC[C@H]2CC[C@H]3[C@H](CCN3Cc3cccs3)O2)c1`, the cytotoxicity at 70.5 h stood at 2.81%. For the molecule `COc1ccc(CN2C[C@@H](N(C)Cc3ccco3)[C@H]3OCCC[C@H]32)cc1`, the cytotoxicity at 70.5 h was -8.22%.

As for `Cc1ccc(N2CCO[C@H]3CN(Cc4cnn(C)c4)C[C@H]32)nn1`, the cytotoxicity at 70.5 h is -19.2%.

As to `Cc1ccc(N2CCO[C@H]3CN(CC4CC4)C[C@H]32)nn1`, the cytotoxicity at 70.5 h is -13.4%. For the molecule `CN(C)CC1CN(Cc2ccc3c(c2)OCO3)Cc2nccn2C1` (configuration not stated), the cytotoxicity at 70.5 h was determined as 27.2%.

Take `O=C(c1ccccn1)N1Cc2nccn2CC(CN2CCOCC2)C1` (configuration not stated): the cytotoxicity at 70.5 h is -10.3%.

For the molecule `CN(C)CC1CN(Cc2ccsc2)Cc2nccn2C1` (configuration not stated), the cytotoxicity at 70.5 h was -0.272%.

For `CO[C@H]1CCN(Cc2cccs2)[C@@H]2CN(Cc3ccncc3)C[C@H]12`, the cytotoxicity at 70.5 h was -2.84%. For `Cc1ccc(CN2CCOC3(COCCN(CCN(C)C)C3)C2)o1` (configuration not stated), the cytotoxicity at 70.5 h was -7.86%. With `CN(Cc1cccnc1)C1CC2(CCN(c3ccccn3)CC2)C1`, the cytotoxicity at 70.5 h was -8.74%. With `c1ccc(CN2CC[C@]3(C[C@@H](Oc4ccccn4)CO3)C2)nc1` the figure was 19.9%.
